Measured values: PMC6693646 (Neuropharmacology, 2019)
Bridge positions count the residues as written; N and C are the ends. Peptide text beside a SMILES is read from it.

Tests used:
[1] = target: rα6β4 nAChR (Rattus norvegicus, UniProt P12392+P43143); assay: cell-based
[2] = target: T1, rα6/α3β2β3 nAChR (Rattus norvegicus, UniProt P04757+P12390+P43143); format: cell-based
[3] = target: T2, rα6/α3β4 nAChR (Rattus norvegicus, UniProt P04757+P12392+P43143); assay: cell-based
[4] = target: rα3β4 nAChR (Rattus norvegicus, UniProt P04757+P12392); assay: cell-based
rα3β4 nAChR, sequence (P04757 26-499 limits assumed): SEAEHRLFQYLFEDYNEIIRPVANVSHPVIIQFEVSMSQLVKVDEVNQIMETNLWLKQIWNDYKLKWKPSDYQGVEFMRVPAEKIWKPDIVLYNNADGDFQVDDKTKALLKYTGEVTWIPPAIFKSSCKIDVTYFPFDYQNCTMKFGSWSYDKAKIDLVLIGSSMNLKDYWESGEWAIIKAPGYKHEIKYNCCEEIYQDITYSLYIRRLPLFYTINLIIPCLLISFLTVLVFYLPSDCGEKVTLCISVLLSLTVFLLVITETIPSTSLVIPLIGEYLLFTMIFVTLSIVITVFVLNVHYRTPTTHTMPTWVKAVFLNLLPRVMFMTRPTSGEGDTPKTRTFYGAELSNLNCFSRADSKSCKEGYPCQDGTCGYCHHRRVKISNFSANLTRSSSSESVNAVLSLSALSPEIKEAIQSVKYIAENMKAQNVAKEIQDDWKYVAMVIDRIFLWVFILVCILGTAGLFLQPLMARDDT
rα3β4 nAChR, sequence (P12392 22-495 limits assumed): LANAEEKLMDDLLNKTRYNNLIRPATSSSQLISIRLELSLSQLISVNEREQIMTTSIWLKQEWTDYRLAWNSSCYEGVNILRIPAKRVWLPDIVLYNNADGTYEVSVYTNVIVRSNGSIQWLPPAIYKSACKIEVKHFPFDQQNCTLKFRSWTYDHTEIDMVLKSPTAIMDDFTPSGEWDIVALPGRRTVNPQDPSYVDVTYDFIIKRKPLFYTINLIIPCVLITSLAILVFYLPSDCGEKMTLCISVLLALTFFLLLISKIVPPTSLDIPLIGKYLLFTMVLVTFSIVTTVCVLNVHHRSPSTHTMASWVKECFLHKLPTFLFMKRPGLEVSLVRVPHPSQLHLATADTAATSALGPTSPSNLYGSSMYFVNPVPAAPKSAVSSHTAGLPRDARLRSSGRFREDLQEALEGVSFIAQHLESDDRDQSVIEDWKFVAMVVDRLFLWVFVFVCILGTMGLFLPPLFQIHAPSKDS

[5] = target: rα9α10 nAChR (Rattus norvegicus, UniProt P43144+Q9JLB5); assay: cell-based
[6] = target: hα6/α3β2β3 nAChR (Homo sapiens, UniProt P17787+P32297+Q05901+Q15825); assay: cell-based
[7] = target: hα6/α3β4 nAChR (Homo sapiens, UniProt P30926+P32297+Q15825); assay: cell-based
[8] = target: hα3β4 nAChR (Homo sapiens, UniProt P30926+P32297); assay: cell-based
[9] = target: hα4β2 nAChR (Homo sapiens, UniProt P17787+P43681); assay: cell-based
[10] = target: rα2β4 nAChR (Rattus norvegicus, UniProt P12389+P12392); assay: cell-based
[11] = target: rα3β2 nAChR (Rattus norvegicus, UniProt P04757+P12390); assay: cell-based
[12] = target: T2, rα6/α3β4 nAChR; format: cell-based
[13] = target: rα7 nAChR (Rattus norvegicus, UniProt Q05941); assay: cell-based
rα7 nAChR, sequence (Q05941 23-502 limits assumed): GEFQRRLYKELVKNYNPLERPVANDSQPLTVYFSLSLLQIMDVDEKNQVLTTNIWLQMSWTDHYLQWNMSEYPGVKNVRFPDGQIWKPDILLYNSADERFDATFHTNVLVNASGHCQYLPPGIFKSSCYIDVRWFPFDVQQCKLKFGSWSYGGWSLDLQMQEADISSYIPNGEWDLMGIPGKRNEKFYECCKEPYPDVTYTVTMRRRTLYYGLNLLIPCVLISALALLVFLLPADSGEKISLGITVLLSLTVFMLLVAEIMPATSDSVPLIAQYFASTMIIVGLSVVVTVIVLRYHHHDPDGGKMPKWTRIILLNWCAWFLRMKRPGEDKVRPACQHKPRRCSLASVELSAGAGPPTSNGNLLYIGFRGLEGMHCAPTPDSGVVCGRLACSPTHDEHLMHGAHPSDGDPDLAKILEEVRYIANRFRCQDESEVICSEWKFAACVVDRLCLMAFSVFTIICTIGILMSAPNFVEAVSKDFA

[14] = target: rα4β2 nAChR (Rattus norvegicus, UniProt P09483+P12390); assay: cell-based; format: cell-based
rα4β2 nAChR, sequence (P09483 31-630 limits assumed): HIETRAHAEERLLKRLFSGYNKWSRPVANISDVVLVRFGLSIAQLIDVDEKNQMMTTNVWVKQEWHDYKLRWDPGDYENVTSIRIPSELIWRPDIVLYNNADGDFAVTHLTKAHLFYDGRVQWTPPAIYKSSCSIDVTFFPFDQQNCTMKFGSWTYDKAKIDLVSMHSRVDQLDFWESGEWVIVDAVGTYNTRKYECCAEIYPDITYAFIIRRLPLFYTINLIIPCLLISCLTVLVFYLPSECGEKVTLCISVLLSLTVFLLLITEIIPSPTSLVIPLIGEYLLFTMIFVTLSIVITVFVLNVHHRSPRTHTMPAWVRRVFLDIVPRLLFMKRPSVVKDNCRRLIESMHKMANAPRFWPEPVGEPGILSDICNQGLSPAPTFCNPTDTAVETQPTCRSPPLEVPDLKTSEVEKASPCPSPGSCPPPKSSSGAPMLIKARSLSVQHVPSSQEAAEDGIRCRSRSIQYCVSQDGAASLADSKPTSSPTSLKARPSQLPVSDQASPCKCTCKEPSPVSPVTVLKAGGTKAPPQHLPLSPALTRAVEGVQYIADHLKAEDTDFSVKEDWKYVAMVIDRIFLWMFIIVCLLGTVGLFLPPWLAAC
rα4β2 nAChR, sequence (P12390 25-500 limits assumed): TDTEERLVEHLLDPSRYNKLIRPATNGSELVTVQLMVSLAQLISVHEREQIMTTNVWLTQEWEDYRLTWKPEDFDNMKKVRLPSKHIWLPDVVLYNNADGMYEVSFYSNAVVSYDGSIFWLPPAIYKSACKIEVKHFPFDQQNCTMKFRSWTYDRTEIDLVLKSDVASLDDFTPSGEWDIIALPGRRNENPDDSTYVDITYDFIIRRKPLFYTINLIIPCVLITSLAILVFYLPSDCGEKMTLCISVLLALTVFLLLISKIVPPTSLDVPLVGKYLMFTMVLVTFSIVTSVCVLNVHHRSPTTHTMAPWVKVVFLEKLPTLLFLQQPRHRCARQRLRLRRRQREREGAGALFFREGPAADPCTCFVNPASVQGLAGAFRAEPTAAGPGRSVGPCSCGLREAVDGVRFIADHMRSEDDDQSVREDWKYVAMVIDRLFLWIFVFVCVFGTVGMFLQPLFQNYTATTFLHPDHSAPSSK

[15] = target: rα4β4 nAChR (Rattus norvegicus, UniProt P09483+P12392); assay: cell-based
[16] = target: T1, rα6/α3β2β3 nAChR; assay: cell-based
[17] = target: rα2β2 nAChR (Rattus norvegicus, UniProt P12389+P12390); assay: cell-based
[18] = read-out: inhibition of ACh-evoked current

T2 sequence (P43143 31-237 limits assumed): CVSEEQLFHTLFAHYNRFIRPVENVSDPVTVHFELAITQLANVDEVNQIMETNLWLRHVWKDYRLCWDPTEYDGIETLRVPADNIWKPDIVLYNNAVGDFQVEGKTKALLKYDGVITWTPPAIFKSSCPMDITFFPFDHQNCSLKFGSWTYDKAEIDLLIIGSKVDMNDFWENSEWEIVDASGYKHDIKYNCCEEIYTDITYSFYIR
T2 sequence (P04757 233-499 limits assumed): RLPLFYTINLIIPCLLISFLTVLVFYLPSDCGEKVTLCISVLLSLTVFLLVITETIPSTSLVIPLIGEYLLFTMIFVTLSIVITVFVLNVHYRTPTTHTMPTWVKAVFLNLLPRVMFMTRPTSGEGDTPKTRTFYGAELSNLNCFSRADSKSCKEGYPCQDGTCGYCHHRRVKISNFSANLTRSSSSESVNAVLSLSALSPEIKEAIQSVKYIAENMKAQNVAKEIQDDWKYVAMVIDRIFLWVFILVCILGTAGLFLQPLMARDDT
T2 sequence (P12392 22-495 limits assumed): as the sequence (P12392 22-495 limits assumed) above
T1 sequence (P43143 31-237 limits assumed): as the sequence (P43143 31-237 limits assumed) above
T1 sequence (P04757 233-499 limits assumed): as the sequence (P04757 233-499 limits assumed) above
T1 sequence (P12390 25-500 limits assumed): as the sequence (P12390 25-500 limits assumed) above

CC(C)[C@@H]1NC(=O)[C@@H]2CCCN2C(=O)[C@H](Cc2c[nH]cn2)NC(=O)[C@H](CO)NC(=O)[C@@H]2CSSC[C@@H](C(=O)NCC(N)=O)NC(=O)[C@H](CC(N)=O)NC(=O)[C@@H]3CCCN3C(=O)[C@H](CC(N)=O)NC(=O)[C@H](CCCCN)NC(=O)[C@H]([C@@H](C)O)NC(=O)[C@H](Cc3ccc(O)cc3)NC(=O)[C@H](CSSC[C@H](NC(=O)CNC(=O)CN)C(=O)N2)NC1=O [VnIB] (H-GGCCSHPVCYTKNPNCG-NH2; disulfide 3-9, 4-16)
IC50 [1]: 12 nM
reduction of ACh-evoked currents [2]: ~ 10%
koff [3]: 0.00437 s⁻¹
kon [3]: 420000 M⁻¹ s⁻¹
IC50 [4]: 320 nM
inhibition at 1 µM [4, 18]: 80%
IC50 [5]: > 10 µM
IC50 [6]: > 10 µM
IC50 [7]: 5.3 nM
IC50 [8]: > 10 µM
IC50 [9]: > 10 µM
IC50 [10]: > 10 µM
IC50 [11]: > 10 µM
reduction of ACh-evoked currents [12]: ~ 85%
IC50 [13]: > 10 µM
IC50 [14]: > 10 µM
effect on ACh-evoked response [14]: no significant effect
IC50 [15]: > 10 µM
IC50 [16]: 4 µM
inhibition at 1 µM [16, 18]: 23%
IC50 [17]: > 10 µM
